{
  "source": "patent US20030157200A1",
  "about": "“Use of oligosaccharides to stimulate beta-endorphin production” (priority 2000, published 2003)",
  "tested_on": "normal human keratinocytes",
  "test": "Synthesis/secretion of β-endorphin by normal human keratinocytes, assayed by EIA",
  "assay_type": "cell-based",
  "conditions": "24 h; for effect on the production of β-endorphin by normal human keratinocytes (in words): normal human keratinocytes in culture",
  "method": "Norman human keratinocytes are cultivated to the point of confluence on a 24-well plate and then incubated in a culture medium for 24 hours in the presence of dibutiryl CAMP (2 mM), interleukin-1β (IL-1β) (500 pg/ml) and the test product, i.e. in this case either Tephrosia purpurea extracts according to Example 1, or stachyose, or ciceritol, at the doses indicated in Tables I, II and III respectively.\nEach Tephrosia extract obtained by the process of Example 1 is provided accurately weighed and redissolved at a concentration of 50 mg/ml in an ethanol/water mixture (1/1).\nAntiproteases—aprotinin 5 μg/ml, leupeptin 1 μg/ml and PMSF 1 mM —are added to each well in order to limit the action of the proteases.\nEach experimental point is duplicated.\nAfter incubation for 24 h, the culture supernatants are recovered and frozen at −80° C.\nPositive stimulation controls are carried out in parallel, the cells being treated for 24 h, as above, with either IL-1β 500 pg/ml or dibutyryl CAMP 2 mM.\nThe β-endorphin secreted is assayed by EIA (kit from Peninsula Laboratoiries) and expressed in pg/ml.\nThe procedure followed is the same as in the experiments with Tephrosia purpurea extracts except that stachyose and ciceritol are used at the doses indicated in Table II, and the results obtained are indicated in Table II below.",
  "data": [
    {"compound": "CO[C@H]1[C@H](O)[C@@H](O[C@H]2O[C@H](CO[C@H]3O[C@H](CO)[C@H](O)[C@H](O)[C@H]3O)[C@H](O)[C@H](O)[C@H]2O)[C@@H](O)[C@H](O)[C@@H]1O", "note": "[Ciceritol, O-α-D-galactopyranosyl-[1→6]-O-α-D-galactopyranosyl-[1→2]-4-O-methyl-D-chiroinositol]", "values": [
      {"measurement": "β-endorphin secreted", "setting": "20 ng/ml, Table II ciceritol first series, Control 1 ± 2", "result": "8 ± 3", "unit": "pg/mL"},
      {"measurement": "β-endorphin secreted", "setting": "64 ng/ml, Table II ciceritol second series, Control 3 ± 3", "result": "44 ± 7", "unit": "pg/mL"},
      {"measurement": "β-endorphin secreted", "setting": "100 ng/ml, Table II ciceritol first series, Control 1 ± 2", "result": "8 ± 4", "unit": "pg/mL"},
      {"measurement": "β-endorphin secreted", "setting": "500 ng/ml, Table II ciceritol first series, Control 1 ± 2", "result": "9 ± 5", "unit": "pg/mL"},
      {"measurement": "effect on the production of β-endorphin by normal human keratinocytes (in words)", "result": "stimulating effect"}
    ]},
    {"compound": "OC[C@H]1O[C@H](OC[C@H]2O[C@H](OC[C@H]3O[C@H](O[C@]4(CO)O[C@H](CO)[C@@H](O)[C@@H]4O)[C@H](O)[C@@H](O)[C@@H]3O)[C@H](O)[C@@H](O)[C@H]2O)[C@H](O)[C@@H](O)[C@H]1O", "note": "[Stachyose, O-α-D-galactopyranosyl-[1→6]-O-α-D-galactopyranosyl-[1→6]-β-D-fructofuranosyl-α-D-glucopyranoside]", "values": [
      {"measurement": "β-endorphin secreted", "setting": "20 ng/ml, Table II stachyose experiment, Control 10 ± 3", "result": "16 ± 1", "unit": "pg/mL"},
      {"measurement": "β-endorphin secreted", "setting": "100 ng/ml, Table II stachyose experiment, Control 10 ± 3", "result": "22 ± 2", "unit": "pg/mL"},
      {"measurement": "β-endorphin secreted", "setting": "500 ng/ml, Table II stachyose experiment, Control 10 ± 3", "result": "30 ± 13", "unit": "pg/mL"},
      {"measurement": "effect on the production of β-endorphin by normal human keratinocytes (in words)", "result": "stimulating effect"}
    ]},
    {"compound": "CCCC(=O)Nc1ncnc2c1ncn2[C@@H]1O[C@@H]2COP(=O)(O)O[C@H]2[C@H]1OC(=O)CCC", "note": "[dibutyryl cAMP]", "values": [
      {"measurement": "β-endorphin secreted", "setting": "2 mM, positive control, Table I batch B1 block, Control 3 ± 4", "result": "87 ± 12", "unit": "pg/mL"},
      {"measurement": "β-endorphin secreted", "setting": "2 mM, positive control, Table I batch B2 experiment, Control 3 ± 4", "result": "87 ± 12", "unit": "pg/mL"},
      {"measurement": "β-endorphin secreted", "setting": "2 mM, positive control, Table I batch B3 first series, Control 1 ± 1", "result": "10 ± 1", "unit": "pg/mL"},
      {"measurement": "β-endorphin secreted", "setting": "2 mM, positive control, Table I batch B3 second series, Control 1 ± 3", "result": "22 ± 1", "unit": "pg/mL"},
      {"measurement": "β-endorphin secreted", "setting": "2 mM, positive control, Table II ciceritol first series, Control 1 ± 2", "result": "10 ± 1", "unit": "pg/mL"},
      {"measurement": "β-endorphin secreted", "setting": "2 mM, positive control, Table II ciceritol second series, Control 3 ± 3", "result": "87 ± 8", "unit": "pg/mL"},
      {"measurement": "β-endorphin secreted", "setting": "2 mM, positive control, Table II stachyose experiment, Control 10 ± 3", "result": "22 ± 1", "unit": "pg/mL"},
      {"measurement": "effect on the production of β-endorphin by normal human keratinocytes (in words)", "result": "stimulated the production of β-endorphin"}
    ]},
    {"compound": "IL-1β: interleukin-1β, positive stimulation control", "values": [
      {"measurement": "β-endorphin secreted", "setting": "500 pg/ml, positive control, Table I batch B1 block, Control 3 ± 4", "result": "35 ± 5", "unit": "pg/mL"},
      {"measurement": "β-endorphin secreted", "setting": "500 pg/ml, positive control, Table I batch B2 experiment, Control 3 ± 4", "result": "35 ± 5", "unit": "pg/mL"},
      {"measurement": "β-endorphin secreted", "setting": "500 pg/ml, positive control, Table I batch B3 first series, Control 1 ± 1", "result": "17 ± 3", "unit": "pg/mL"},
      {"measurement": "β-endorphin secreted", "setting": "500 pg/ml, positive control, Table I batch B3 second series, Control 1 ± 3", "result": "25 ± 4", "unit": "pg/mL"},
      {"measurement": "β-endorphin secreted", "setting": "500 pg/ml, positive control, Table II ciceritol first series, Control 1 ± 2", "result": "17 ± 3", "unit": "pg/mL"},
      {"measurement": "β-endorphin secreted", "setting": "500 pg/ml, positive control, Table II ciceritol second series, Control 3 ± 3", "result": "35 ± 3", "unit": "pg/mL"},
      {"measurement": "β-endorphin secreted", "setting": "500 pg/ml, positive control, Table II stachyose experiment, Control 10 ± 3", "result": "25 ± 4", "unit": "pg/mL"},
      {"measurement": "effect on the production of β-endorphin by normal human keratinocytes (in words)", "result": "stimulated the production of β-endorphin"}
    ]}
  ]
}
